In data set [1] the target is T1, ICL (Mycobacterium tuberculosis, UniProt P9WKK7).
T1 sequence (P9WKK7 1-428): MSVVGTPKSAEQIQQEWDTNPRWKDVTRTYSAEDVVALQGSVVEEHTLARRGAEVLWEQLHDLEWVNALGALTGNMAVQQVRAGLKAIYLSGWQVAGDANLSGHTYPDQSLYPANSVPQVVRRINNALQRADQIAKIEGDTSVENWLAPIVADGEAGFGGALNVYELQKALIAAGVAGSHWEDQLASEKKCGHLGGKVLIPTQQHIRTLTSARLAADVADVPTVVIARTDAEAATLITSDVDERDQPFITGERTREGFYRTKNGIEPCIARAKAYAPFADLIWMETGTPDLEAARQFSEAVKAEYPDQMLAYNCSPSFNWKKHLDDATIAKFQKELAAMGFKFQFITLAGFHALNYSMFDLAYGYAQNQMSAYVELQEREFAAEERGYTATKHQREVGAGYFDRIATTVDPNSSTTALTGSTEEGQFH
To be noted: read-out: IC50 against ICL; ref Muñoz-Elías and McKinney, 2005; cited from earlier work.

The test system of a further data set is H37Rv. The data set can be described thus: MABA MIC99 determination, H37Rv strain. It counts as cell-based, Mycobacterium tuberculosis. On the technique in general: The colour change of resazurin is a common sign of viable cells or microbes.
The next data set in a line: UV absorbance peak. To be noted: UV absorbance peak in solution.
The format of data set [2] is in vitro ADME. The settings on record: equilibrium dialysis.
The subject of a further data set is mc^2-7000 Mtb. In words: MABA MIC99 determination, mc^2-7000 strain. Format: cell-based, Mycobacterium tuberculosis. The settings on record: for MIC99 mc^2-7000 Mtb acetate: M9 media with acetate; for MIC99: Mycobacterium tuberculosis.
The nature of data set [3]: Compound stability in solution. To be noted: stability in cell growth media or buffer solutions.
A further data set deals with M. tuberculosis. It counts as in vivo. The settings on record: target dose 30 mg/kg, once a day, 9 days post-infection.
In data set [4] the target is T1, ICL. In words: Isocitrate lyase. Format: biochemical. To be noted: single concentration point of 40 μg/ml.
[5] abbreviates: read-out: MIC99 mc^2-7000 Mtb acetate.
Where [6] appears, read: read-out: MIC99 mc^2-7000 Mtb dextrose.

≈ marks a conversion by molar mass, not a printed value. Read-outs that look alike come from different tables or passages of the source.

By IC50 is commonly meant the concentration that inhibits the measured activity by half. The MIC99 is the lowest concentration that inhibits either 99% of growth or 99% of the strains tested, depending on the study.

With `O=C(O)CC[N+](=O)[O-]` [3-nitropropionate], the IC50 on ICL [1] is 3 µM.
As for `Cc1ccccc1C(=O)CC(=O)C(=O)O` [Compound 1], the “H37Rv MIC99 on acetate” value in the data set on H37Rv (acetate) came to 16 µM. Further, in the data set with H37Rv (dextrose), the “H37Rv MIC99 on dextrose” value stood at 31 µM. The λmax in “UV absorbance peak” is 326 nM. For the same compound, the “Mouse plasma protein binding” value in data set [2] is on record as 70.7 ± 1.8%. For the same compound, in the data set on mc^2-7000 Mtb, the “MIC99 mc^2-7000 Mtb dextrose” value worked out at 200 µM (≈ 41.2 µg/mL) and the “MIC99 mc^2-7000 Mtb acetate” value was greater than 200 µM. For the same compound, the Half-life in data set [3] worked out at 720 h.
`O=C(O)C(=O)CC(=O)c1ccccc1F` [Compound 2] returned a λmax in “UV absorbance peak” of 333 nM. Besides, in the data set on mc^2-7000 Mtb, the “MIC99 mc^2-7000 Mtb dextrose” value turned out to be 200 µM (≈ 42 µg/mL) and the “MIC99 mc^2-7000 Mtb acetate” value is greater than 200 µM. The Half-life in data set [3] was 288 h.
The corresponding values for `O=C(O)C(=O)CC(=O)c1ccccc1Cl` [Compound 3] are 324 nM, 200 µM (≈ 45.3 µg/mL), greater than 200 µM and 840 h.
`O=C(O)C(=O)CC(=O)c1cccc(Cl)c1` [Compound 6]: the λmax in the data set “UV absorbance peak” came to 341 nM. Further, in the data set on mc^2-7000 Mtb, the “MIC99 mc^2-7000 Mtb dextrose” value came out at 25 µM (≈ 5.67 µg/mL) and the “MIC99 mc^2-7000 Mtb acetate” value was found to be 25 µM (≈ 5.67 µg/mL). For the same compound, the Half-life in data set [3] turned out to be 170 h.
Compound `Cc1ccc(C(=O)CC(=O)C(=O)O)cc1` [Compound 8] gave a λmax in “UV absorbance peak” of 340 nM. In the data set on mc^2-7000 Mtb, the “MIC99 mc^2-7000 Mtb dextrose” value turned out to be 100 µM (≈ 20.6 µg/mL) and the “MIC99 mc^2-7000 Mtb acetate” value was 50 µM (≈ 10.3 µg/mL). The same compound came in with a Half-life in data set [3] of 190 h.
The compound `O=C(O)C(=O)CC(=O)c1ccc(Br)cc1` [Compound 9] came in with a λmax in “UV absorbance peak” of 345 nM. In addition, in the data set on mc^2-7000 Mtb, the “MIC99 mc^2-7000 Mtb dextrose” value was determined as 25 µM (≈ 6.78 µg/mL) and the “MIC99 mc^2-7000 Mtb acetate” value is 50 µM (≈ 13.6 µg/mL). The same compound yielded a Half-life in data set [3] of 170 h.
As for `COc1c(N2C[C@@H]3CCCN[C@@H]3C2)c(F)cc2c(=O)c(C(=O)O)cn(C3CC3)c12` [Moxifloxacin], the “Decrease in log10 CFU in lungs” value in the data set on M. tuberculosis is 3.07 log10 CFU.
`O=C(O)/C(O)=C/C(=O)c1ccccc1` [PDKA, (Z)-2-hydroxy-4-oxo-4-phenylbut-2-enoic acid]: the Half-life in the data set “physchem” is roughly 72 h. The same compound gave a λmax in “UV absorbance peak” of 340 nM. Also, the values for the MIC99 in the data set on mc^2-7000 Mtb (setting [5]) and in the data set with mc^2-7000 Mtb (setting [6]) were 50 µM (≈ 9.61 µg/mL) and 25 µM (≈ 4.8 µg/mL), respectively. Further, the “activity against ICL” value on ICL [4] was “inactive”.
In the case of `CO[C@H]1/C=C/O[C@@]2(C)Oc3c(C)c(O)c4c(O)c(c(/C=N/N5CCN(C)CC5)c(O)c4c3C2=O)NC(=O)/C(C)=C\C=C\[C@H](C)[C@H](O)[C@@H](C)[C@@H](O)[C@@H](C)[C@H](OC(C)=O)[C@@H]1C` [Rifampicin, reference compound], the MIC99 is 0.25 µM (≈ 0.206 µg/mL) in the data set on mc^2-7000 Mtb (setting [5]) and 0.125 µM (≈ 0.103 µg/mL) in the data set on mc^2-7000 Mtb (setting [6]).

Values taken from paper PMC3530165 (Chemistry & biology, 2012).
